pIC50: −log10 of the molar value.
What was measured:
HL60 (leukemia) = assay: In vitro cytotoxic activity MTT assay, HL60; type: cell-based; conditions: Homo sapiens, HL-60, 96 hours exposure, read-out: IC50, 50% inhibition of cell proliferation
Protocol: (§1) Compounds 1-16 were screened for their in vitro cytotoxic activity utilizing a 3-(4,5-dimethyl-thiazol-2-yl)-2,5-diphenyltetrazolium bromide (MTT) assay against selected cancer human cell lines consisting of PC3 (prostate), HCT116 (colon), A375 (melanoma), H1299 (lung), MIAPaCa-2 (pancreas), HL60 (leukemia), MCF7 (breast), MDA-MB-231 (breast) (T. Mosmann, J. Immunol. Meth., 1983, 65, 55-63). The cells were cultured at 37° C. in RMPI1640 medium supplemented with 10% fetal bovine serum, 50 IU/mL penicillin, and 50 μg/mL streptomycin in a 5% CO2 incubator. All cells were sub-cultured 3 times/week by trypsinisation. Viable cells were seeded and allowed to adhere for 12 h before a test drug was added in 96-well plates at an initial density of 1.0×10^5 cells/mL. Tumor cell lines were separately exposed to various concentrations of the tested compounds followed by incubation at a temperature of 37° C. during 96 h inside a medium of fresh RMPI 1640. Cells were subsequently incubated at 37° C. using MTT at 0.5 mg/mL during 4 h. After removal of supernatant, formazan crystals were dissolved in isopropanol and the optical density was measured at 570 nm. CX-4945 was used as a positive control.

[1] = biological target: T1, recombinant human CK2 (RRββ-holoenzyme) (Homo sapiens, UniProt P68400); assay: CK2 Kinase Assay (33P-ATP, filter plate); type: biochemical; conditions: final ATP concentration 15 μM, 10 min at 30° C.; read-out: protein kinase CK2 IC50
T1 construct: purchased Millipore
T1 sequence (P68400 whole entry): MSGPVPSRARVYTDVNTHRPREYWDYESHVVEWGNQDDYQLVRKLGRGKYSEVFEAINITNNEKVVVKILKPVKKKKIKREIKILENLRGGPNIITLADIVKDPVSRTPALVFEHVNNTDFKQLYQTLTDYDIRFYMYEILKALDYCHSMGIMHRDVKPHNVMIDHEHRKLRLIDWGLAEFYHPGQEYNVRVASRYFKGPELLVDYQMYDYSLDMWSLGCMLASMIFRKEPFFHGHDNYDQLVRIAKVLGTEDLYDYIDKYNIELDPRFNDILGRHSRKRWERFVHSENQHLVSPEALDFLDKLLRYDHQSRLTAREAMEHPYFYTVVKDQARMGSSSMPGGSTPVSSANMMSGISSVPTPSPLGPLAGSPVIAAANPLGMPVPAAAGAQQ
T1 sequence (P67870 whole entry partner): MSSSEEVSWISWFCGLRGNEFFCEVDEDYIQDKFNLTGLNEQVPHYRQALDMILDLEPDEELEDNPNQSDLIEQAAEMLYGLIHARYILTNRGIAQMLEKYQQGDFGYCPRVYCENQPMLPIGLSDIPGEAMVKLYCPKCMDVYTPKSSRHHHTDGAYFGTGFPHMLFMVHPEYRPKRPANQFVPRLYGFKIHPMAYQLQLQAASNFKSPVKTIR
Protocol: CK2 Kinase Assay was conducted using the protocol as described in Pierre F. et al; J. Med. Chem. 2011, 54, 635-654. The tested compounds in aqueous solution were added at a volume of 10 μL to a reaction mixture comprising 10 μL of assay dilution buffer (ADB; 20 mM MOPS, pH 7.2, 25 mM β-glycerol phosphate, 5 mM EGTA, 1 mM sodium orthovanadate, and 1 mM dithiothreitol), 10 μL of substrate peptide (RRRDDDSDDD, dissolved in ADB at a concentration of 1 mM), 10 μL of recombinant human CK2 (RRββ-holoenzyme, 25 ng dissolved in ADB; Millipore). Reactions were initiated by the addition of 10 μL of ATP solution (90% 75 mMMgCl2, 75 μM ATP (final ATP concentration: 15 μM) dissolved in ADB; 10% [γ-33P] ATP (stock 1mCi/100 μL; 3000 Ci/mmol (Perkin-Elmer) and maintained for 10 min at 30° C. The reactions were quenched with 100 μL of 0.75% phosphoric acid and then transferred to and filtered through a phosphor cellulose filter plate (Millipore). After washing each well five times with 0.75% phosphoric acid, the plate was dried under vacuum for 5 min and, following the addition of 15 μL of scintillation fluid to each well, the residual radioactivity was measured using a Wallac […]. The IC50 values were derived from eight concentrations of test inhibitors.

MDA-MB-231 (breast) = assay: In vitro cytotoxic activity MTT assay, MDA-MB-231; type: cell-based; conditions: Homo sapiens, 96 hours exposure, read-out: IC50, 50% inhibition of cell proliferation
Protocol: as §1

HCT116 (colon) = assay: In vitro cytotoxic activity MTT assay, HCT116; type: cell-based; conditions: Homo sapiens, HCT-116, 96 hours exposure, read-out: IC50, 50% inhibition of cell proliferation
Protocol: as §1

PC3 (prostate) = assay: In vitro cytotoxic activity MTT assay, PC3; type: cell-based; conditions: Homo sapiens, 96 hours exposure, read-out: IC50, 50% inhibition of cell proliferation
Protocol: as §1

A375 (melanoma) = assay: In vitro cytotoxic activity MTT assay, A375; type: cell-based; conditions: Homo sapiens, A-375, 96 hours exposure, read-out: IC50, 50% inhibition of cell proliferation
Protocol: as §1

MCF7 (breast) = assay: In vitro cytotoxic activity MTT assay, MCF7; type: cell-based; conditions: Homo sapiens, 96 hours exposure, read-out: IC50, 50% inhibition of cell proliferation
Protocol: as §1

MIAPaCa-2 (pancreas) = assay: In vitro cytotoxic activity MTT assay, MIAPaCa-2; type: cell-based; conditions: Homo sapiens, MIA PaCa-2, 96 hours exposure, read-out: IC50, 50% inhibition of cell proliferation
Protocol: as §1

H1299 (lung) = assay: In vitro cytotoxic activity MTT assay, H1299; type: cell-based; conditions: Homo sapiens, NCI-H1299, 96 hours exposure, read-out: IC50, 50% inhibition of cell proliferation
Protocol: as §1

pIC50 [1]: 7.51
SMILES: O=C(O)c1cc2c(Nc3cccc(Cl)c3)nc3cnccc3c2[nH]1 [Example 1, 4-((3-chlorophenyl)amino)-1H-pyrrolo[3,2-c][1,7]naphthyridine-2-carboxylic acid]
pIC50 (HL60 (leukemia)): 5.70 | pIC50 (MDA-MB-231 (breast)): 5.46 | pIC50 (HCT116 (colon)): 5.96 | pIC50 (PC3 (prostate)): 5.64 | pIC50 (A375 (melanoma)): 5.49 | pIC50 (MCF7 (breast)): 5.41 | pIC50 (MIAPaCa-2 (pancreas)): 5.85 | pIC50 (H1299 (lung)): 5.80

From patent publication US11884669B1, “Pyrrolo[3,2-c][1,7]naphthyridine-2-carboxylic acid compounds as CK2 inhibitors” (KING FAISAL UNIVERSITY, priority 2023, dated 2024)
